{"source": "paper PMC3901665", "about": "“Characterization of Glycolytic Enzymes - rAldolase and rEnolase of Leishmania donovani, Identified as Th1 Stimulatory Proteins, for Their Immunogenicity and Immunoprophylactic Efficacies against Experimental Visceral Leishmaniasis” (PLoS ONE, 2014)", "format_in_all_cases": "biochemical, Leishmania donovani", "key": {"[1]": {"test_system": "T1, rLdEno (L. donovani enolase)", "T1 construct": "gene ENO; full-length ORF (PCR product 1290 bp), N-terminal 6xHis, pET-28a, E. coli C41(DE3), Ni-NTA", "assay": "spectrophotometric PEP formation at […] nm, Michaelis-Menten", "details": "20 mM Tris-HCl pH 7.5, 2 mM MgSO4, 75 mM KCl, 25°C; 0-10 mM 2PGA"}, "[2]": {"test_system": "T2, rLdAld (L. donovani aldolase)", "T2 construct": "gene ALD; full-length ORF (PCR product 1125 bp), 6xHis tag, pET-28a, E. coli, purified on Ni-NTA", "assay": "hydrazine assay at […] nm, Michaelis-Menten", "details": "hydrazine sulfate as detection reagent; 0.1-7 mM substrate; pH and temperature not given"}, "[3]": {"test_system": "T1, rLdEno (L. donovani enolase)", "assay": "spectrophotometric at […] nm, Michaelis-Menten", "details": "20 mM Tris-HCl pH 7.5, 2 mM MgSO4, 75 mM KCl, 25°C; 0-7.5 mM PEP; reverse reaction"}}}
{"smiles": "O=C(O)[C@@H](CO)OP(=O)(O)O", "note": "[2-phosphoglycerate]", "values": [{"measurement": "Km", "setting": "[1]", "value": 1540, "unit": "µM"}]}
{"smiles": "O=P(O)(O)OC[C@H]1OC(O)(COP(=O)(O)O)[C@@H](O)[C@@H]1O", "note": "(stereo partly drawn) [D-Fru-1,6-P2]", "values": [{"measurement": "Km", "setting": "[2]", "value": 2060, "unit": "µM"}]}
{"smiles": "C=C(OP(=O)(O)O)C(=O)O", "note": "[Phosphoenol pyruvate]", "values": [{"measurement": "Km", "setting": "[3]", "value": 3370, "unit": "µM"}]}
